The text below walks through data of PMC11284788, “NN1213 – A Potent, Long-Acting, and Selective Analog of Human Amylin” (Journal of Medicinal Chemistry, 2024).

Molecules are shown by their SMILES. Like-named read-outs stand apart in the source and are kept apart here. Numbered stars: 1 amine (or outer) side, 2 acyl side, 3 side chain; on linkers, the order of the positions; unused ones are H or OH. Bridge positions count the residues as written; N and C are the ends. Side chains are listed from the residue outwards. Peptide text beside a SMILES is read from it. * marks the point of attachment. C20 diacid = O=C(O)CCCCCCCCCCCCCCCCCCC(=O)*; γGlu = O=C(O)[C@H](CCC(=O)[*:2])N[*:1]

In one series the target is T1, rat AMY3R (Rattus norvegicus, UniProt P32214+Q9JJ73).
T1 construct: expressed in transfected cells; host or cells: BHK tk-ts 13, transient co-transfection (FuGENE 6)
T1 sequence (P32214 25-479 isoform P32214-2 limits assumed): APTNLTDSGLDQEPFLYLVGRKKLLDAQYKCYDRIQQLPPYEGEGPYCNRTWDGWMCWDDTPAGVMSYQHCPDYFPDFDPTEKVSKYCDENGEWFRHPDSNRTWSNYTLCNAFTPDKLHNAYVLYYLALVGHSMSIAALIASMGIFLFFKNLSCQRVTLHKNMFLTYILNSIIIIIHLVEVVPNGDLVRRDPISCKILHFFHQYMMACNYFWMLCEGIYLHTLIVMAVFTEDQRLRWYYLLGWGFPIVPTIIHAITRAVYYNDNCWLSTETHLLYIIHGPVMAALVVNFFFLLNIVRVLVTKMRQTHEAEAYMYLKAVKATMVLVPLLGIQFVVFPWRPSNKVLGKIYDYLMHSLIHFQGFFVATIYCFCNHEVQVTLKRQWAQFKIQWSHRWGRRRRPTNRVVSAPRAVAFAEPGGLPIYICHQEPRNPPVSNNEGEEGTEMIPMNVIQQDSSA
T1 sequence (Q9JJ73 23-147 partner): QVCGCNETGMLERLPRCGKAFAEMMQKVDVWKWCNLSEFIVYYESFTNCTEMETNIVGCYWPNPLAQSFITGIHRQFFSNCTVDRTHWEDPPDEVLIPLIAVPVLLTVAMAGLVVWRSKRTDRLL
Put plainly: cAMP FlashPlate assay, rat AMY3R. The class given is cell-based. The settings on record: for EC50: cAMP (rat receptor assay).

The nature of series [1]: Solubility versus pH profile.
The nature of series [2]: ThT assay: fibril formation propensity and peptide recovery. The class given is physicochemical. Here is the method: The stability properties of the individual amylin analogs were assessed with respect to their propensity toward fibril formation, expressed as the time until fibril formation (measured as Lag time) and loss of dissolved peptide (assessed as Peptide Recovery). […] Samples were prepared as described previously (using the same methodology and materials) for a novel amylin-based analog candidate compound.[7]
Briefly, each compound was dissolved in 10 mM of glycylglycine buffer (pH 4.0) or HEPES buffer (pH 7.5) to a concentration of 250 μM, followed by ThT stock solution to a final concentration of 1 μM. Each solution was aliquoted into a microtiter plate (200 μL/well) sealed with a transparent adhesive sheet. Mechanical stress was applied at 37 °C incubation (960 rpm, 1 mm amplitude) with 20 min fluorescence reading intervals for 45 h (filters: excitation 444 nm; emission 485 nm). Each peptide was tested in experiments consisting of four replicas (e.g., four wells on the same plate), and the lag time of each replica was determined by visual inspection of the fluorescence-versus-time plot. For wells where no fibril formation could be detected, the lag time was set longer than the test period (>45 h). The lag time of the peptide was set to the lowest lag time of the four replicates (conservative estimate). Some of the peptides were tested in more than one experiment, and the lag time results given in Tables 6 and 9 represent the average of these experiments. The ThT time course data given in Supporting Information represent the average and SEM of each experiment.[40] After analysis, wells representing individual replicas were pooled, and the residual soluble peptide was isolated using centrifugation (20,000 g/30 min at room temperature) followed by […] filtration. The amount of residual dissolved peptide was determined using an HPLC with a flow rate of 2 mL/min at 30 °C and 215/276 nm detection. A gradient combining eluent A (7.7% w/w acetonitrile, 200 mM Na2SO4, 20 mM NaH2PO4, 20 mM Na2HPO4, pH 7.2) and eluent B (65.5% w/w acetonitrile) was applied. The amount of residual dissolved peptide was reported on a relative scale (Peptide Recovery) to the amount of dissolved peptide prior to mechanical stress.

The next series deals with T2, hAMY3R (Homo sapiens, UniProt O60896+P30988).
T2 sequence (P30988 25-474): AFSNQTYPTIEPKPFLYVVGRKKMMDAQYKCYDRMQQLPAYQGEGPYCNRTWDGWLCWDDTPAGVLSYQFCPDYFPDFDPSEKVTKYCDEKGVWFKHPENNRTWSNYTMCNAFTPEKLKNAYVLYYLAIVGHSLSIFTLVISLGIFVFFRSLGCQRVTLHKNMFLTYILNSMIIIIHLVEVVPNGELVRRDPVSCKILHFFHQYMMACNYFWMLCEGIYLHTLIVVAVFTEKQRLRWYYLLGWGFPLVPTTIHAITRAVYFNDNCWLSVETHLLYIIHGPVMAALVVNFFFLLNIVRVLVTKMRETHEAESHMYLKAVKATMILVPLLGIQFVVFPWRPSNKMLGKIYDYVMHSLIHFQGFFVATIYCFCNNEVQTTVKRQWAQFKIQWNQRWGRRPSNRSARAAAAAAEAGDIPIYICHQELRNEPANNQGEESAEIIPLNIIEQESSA
T2 sequence (O60896 24-148 partner): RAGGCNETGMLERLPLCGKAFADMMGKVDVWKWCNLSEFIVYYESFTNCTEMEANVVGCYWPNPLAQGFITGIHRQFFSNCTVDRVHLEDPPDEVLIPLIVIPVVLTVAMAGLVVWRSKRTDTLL
Briefly: cAMP-responsive element luciferase reporter assay, human AMY3R. The class given is cell-based. On the set-up: expressed in transfected cells. To be noted: for EC50: luciferase (human receptor assay). In general terms: In a reporter assay the amount or activity of a reporter protein is the signal.

Series [3] in a line: HMWP content by size-exclusion chromatography. The class given is physicochemical. The settings on record: analogs 1–9 (pH 7.5 series); covalent dimers and polymers prior to fibril formation testing, SEC, % of total absorbance area at 215 nm. Here is the method:
The stability properties of the individual amylin analogs were assessed with respect to their propensity toward amyloid fibril formation. The relative amount of covalent dimers and polymers (HMWP) present prior to fibril formation testing was measured as a control for the potential inhibitory effect of HMWP on fibril formation propensity as reported elsewhere.[39]
Elution was performed under isocratic conditions with the following mobile phase prepared in Milli-Q water (Millipore A/S): 0.5 M NaCl, 10 mM sodium dihydrogen monohydrate, 5 mM ortho-phosphoric acid, 50% (v/v) 2-propanol. The amount of HMWP was determined as the absorbance area of the corresponding peaks given in percentage of the total absorbance area. The molar extinction coefficients of the molecules eluting in the HMWP fraction and the main peak was assumed to be equal.

The target in the next series is T3, rat CTR (Rattus norvegicus, UniProt P32214).
T3 construct: expressed in transfected cells; host or cells: BHK tk-ts 13, transient (FuGENE 6)
T3 sequence (P32214 25-479 isoform P32214-2 limits assumed): T1 sequence (P32214 25-479 isoform P32214-2 limits assumed)
Briefly: cAMP FlashPlate assay, rat CTR. The class given is cell-based. To be noted: cAMP (rat receptor assay).

A further series deals with T4, hCTR (Homo sapiens, UniProt P30988).
T4 sequence (P30988 25-474): T2 sequence (P30988 25-474)
Briefly: cAMP-responsive element luciferase reporter assay, human CTR. The class given is cell-based. The settings on record: luciferase (human receptor assay).

For another series, the system named is cAMY1R. Put plainly: Species-specific cAMP assay, cAMY1R. The settings on record: cAMP HTRF, transiently transfected BHK cells, 30 min room temperature, five experiments. Background: Changes in cAMP serve as a functional read-out for many G protein-coupled receptors.
In the next series the test system is cAMY3R. Put plainly: Species-specific cAMP assay, cAMY3R. The settings on record: cAMP HTRF, transiently transfected BHK cells, 30 min room temperature, five experiments.
The subject of the next series is cCTR. Briefly: Species-specific cAMP assay, cCTR. To be noted: cAMP HTRF, transiently transfected BHK cells, 30 min room temperature, five experiments.

In the case of `CC(C)C[C@H](NC(=O)[C@H](CCCNC(=N)N)NC(=O)[C@H](CCC(N)=O)NC(=O)[C@@H](NC(=O)[C@H](C)NC(=O)[C@@H]1CSSC[C@H](NC(=O)[C@@H](N)CCCCNC(=O)CC[C@H](NC(=O)CCCCCCCCCCCCCCCCCCC(=O)O)C(=O)O)C(=O)N[C@@H](CC(N)=O)C(=O)N[C@@H]([C@@H](C)O)C(=O)N[C@@H](C)C(=O)N[C@@H]([C@@H](C)O)C(=O)N1)[C@@H](C)O)C(=O)N[C@@H](C)C(=O)N[C@@H](CC(=O)O)C(=O)N[C@@H](Cc1ccccc1)C(=O)N[C@@H](CC(C)C)C(=O)N[C@@H](CCCNC(=N)N)C(=O)N[C@@H](Cc1c[nH]cn1)C(=O)N[C@@H](CO)C(=O)N[C@@H](CO)C(=O)N[C@@H](CCC(N)=O)C(=O)N[C@@H](CC(N)=O)C(=O)N[C@@H](Cc1ccccc1)C(=O)NCC(=O)N[C@@H](C)C(=O)N1CCC[C@H]1C(=O)N[C@@H](CC(C)C)C(=O)N[C@@H](CO)C(=O)N[C@@H](CO)C(=O)N[C@H](C(=O)N1CCC[C@H]1C(=O)N[C@H](C(=O)NCC(=O)N[C@@H](CO)C(=O)N[C@@H](CC(=O)O)C(=O)N[C@H](C(=O)N[C@@H](Cc1ccc(O)cc1)C(N)=O)[C@@H](C)O)C(C)C)[C@@H](C)O` [Peptide 1] (H-K([γGlu-C20 diacid])CNTATCATQRLADFLRHSSQNFGAPLSSTPVGSDTY-NH2; disulfide 2-7), the EC50 on rat AMY3R (Tables S12 and S14, read-out: rAMY3R pEC50 (converted)) was 0.468 nM; at rat AMY3R (transiently transfected BHK tk-ts 13 cells, FlashPlate, 30 min room temperature, 2% HSA, read-out: rAMY3R EC50), 0.463 nM; on hAMY3R (Tables S12 and S14, read-out: hAMY3R pEC50 (converted)), 0.182 nM; at hAMY3R (BHK cells stably expressing hCTR+RAMP3 and CRE-luciferase, 3 h, 37 °C, 10% FBS, read-out: hAMY3R EC50), 0.18 nM; on rat CTR (Tables S12 and S14, read-out: rCTR pEC50 (converted)) it was 14.5 nM; on rat CTR (transiently transfected BHK tk-ts 13 cells, FlashPlate, 30 min room temperature, 2% HSA, read-out: rCTR EC50) it was 14.3 nM. The EC50 on hCTR (Tables S12 and S14, read-out: hCTR pEC50 (converted)) was 0.692 nM; on hCTR (BHK cells stably expressing hCTR and CRE-luciferase, 3 h, 37 °C, 10% FBS, read-out: hCTR EC50) it was 0.697 nM. The “ratio rCTR/rAMY3R” value at rat AMY3R (ratio of cAMP EC50 values) came to 31. The kinetic solubility (as a rule, solubility judged after dilution from a stock solution rather than from solid) was at least 200 µM in series [1] (bis-tris-propane buffer, pH 6, aqueous buffer); at least 200 µM in series [1] (bis-tris-propane buffer, pH 6.5, aqueous buffer); at least 200 µM in series [1] (bis-tris-propane buffer, pH 7, aqueous buffer); at least 200 µM in series [1] (bis-tris-propane buffer, pH 7.5, aqueous buffer); at least 200 µM in series [1] (bis-tris-propane buffer, pH 8, aqueous buffer); at least 200 µM in series [1] (lactate buffer, pH 4, aqueous buffer). This compound displayed a solubility (kinetic) in series [1] (lactate buffer, pH 5, aqueous buffer) of at least 200 µM. The “ThT, pH 7.5 lag-time” value in series [2] (250 μM peptide, 10 mM HEPES pH 7.5, 1 μM ThT, 37 °C, 960 rpm, 45 h, lowest of four replicas, average of experiments) is reported as above 45 h. Also, the recovery in series [2] (pH 7.5, residual dissolved peptide after 45 h of shaking, centrifugation and 0.22 μm filtration, HPLC, relative to amount before stress) worked out at 100%. Moreover, the “ratio hCTR/hAMY3R” value on hAMY3R (ratio of luciferase EC50 values) is listed as 3.9. This compound also had an HMWP in [3] of 7%.
For `CC(C)C[C@H](NC(=O)[C@H](CCCCN)NC(=O)CNC(=O)[C@H](CC(C)C)NC(=O)[C@@H](NC(=O)[C@@H]1CSSC[C@H](N)C(=O)N[C@@H](CO)C(=O)N[C@@H](CC(N)=O)C(=O)N[C@@H](CC(C)C)C(=O)N[C@@H](CO)C(=O)N[C@@H]([C@@H](C)O)C(=O)N1)C(C)C)C(=O)N[C@@H](CO)C(=O)N[C@@H](CCC(N)=O)C(=O)N[C@@H](CCC(=O)O)C(=O)N[C@@H](CC(C)C)C(=O)N[C@@H](Cc1c[nH]cn1)C(=O)N[C@@H](CCCCN)C(=O)N[C@@H](CC(C)C)C(=O)N[C@@H](CCC(N)=O)C(=O)N[C@H](C(=O)N[C@@H](Cc1ccc(O)cc1)C(=O)N1CCC[C@H]1C(=O)N[C@@H](CCCNC(=N)N)C(=O)N[C@H](C(=O)N[C@@H](CC(N)=O)C(=O)N[C@H](C(=O)NCC(=O)N[C@@H](CO)C(=O)NCC(=O)N[C@H](C(=O)N1CCC[C@H]1C(N)=O)[C@@H](C)O)[C@@H](C)O)[C@@H](C)O)[C@@H](C)O` [sCT, salmon calcitonin, reference compound], the “cAMY1R pEC50” value with cAMY1R is 10.61. Also, the “cAMY3R pEC50” value in the series on cAMY3R amounted to 11.16. Further, the “cCTR pEC50” value with cCTR was 11.27.
